Source: ChEMBL document CHEMBL1201862, “PubChem BioAssay data set” (2004)
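Dose response: 5 concentrations. Exposure: 48 h. Format: 96-well plates. Endpoint: linear interpolation; highest concentration if not reached. GI50 is the concentration that inhibits growth by half.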 Calls of active or inactive are those of the source. Cut-off read from the data, not from the text of the source: active = GI50 up to about 1.1 µM and inactive = higher.

How the values were obtained:
Experiment in all cases: DTP human tumour cell line panel, 48 h
786-0 = tested on: 786-0
A498 = tested on: A498
ACHN = tested on: ACHN
CCRF-CEM = tested on: CCRF-CEM
HCC 2998 = tested on: HCC 2998
HCT-15 = tested on: HCT-15
HOP-92 = tested on: HOP-92
K562 = tested on: K562
LOX IMVI = tested on: LOX IMVI
M14 = tested on: M14
NCI-H460 = tested on: NCI-H460
NCI-H522 = tested on: NCI-H522
OVCAR-5 = tested on: OVCAR-5
OVCAR-8 = tested on: OVCAR-8
RXF 393 = tested on: RXF 393
SK-MEL-28 = tested on: SK-MEL-28
SK-MEL-2 = tested on: SK-MEL-2
SNB-75 = tested on: SNB-75
U-251 = tested on: U-251
UACC-62 = tested on: UACC-62

Compound	GI50 (786-0)	GI50 (A498)	GI50 (ACHN)	GI50 (CCRF-CEM)	GI50 (HCC 2998)	GI50 (HCT-15)	GI50 (HOP-92)	GI50 (K562)	GI50 (LOX IMVI)	GI50 (M14)	GI50 (NCI-H460)	GI50 (NCI-H522)	GI50 (OVCAR-5)	GI50 (OVCAR-8)	GI50 (RXF 393)	GI50 (SK-MEL-28)	GI50 (SK-MEL-2)	GI50 (SNB-75)	GI50 (U-251)	GI50 (UACC-62)
O=c1c2cc(Br)ccc2nc(CNc2ccccc2)n1-c1ccccc1	14.6 µM (inactive)	34.6 µM (inactive)	18.7 µM (inactive)	3.09 µM (inactive)	19.5 µM (inactive)	16.7 µM	19.1 µM (inactive)	14.6 µM (inactive)	7.5 µM (inactive)	20.7 µM (inactive)	17.4 µM (inactive)	6.84 µM (inactive)	52.8 µM (inactive)	23.3 µM (inactive)	15.7 µM (inactive)	22.4 µM (inactive)	20.7 µM (inactive)	20.5 µM (inactive)	15.2 µM (inactive)	8.51 µM (inactive)
C=CCOC1=C(OC(C)=O)C(C2COC(C)(C)O2)OC1=O (centres undefined)	18.7 µM (inactive)	> 100 µM (inactive)	17.9 µM (inactive)	17.4 µM (inactive)	38.2 µM (inactive)	16.3 µM	17.7 µM (inactive)	18 µM (inactive)	11.7 µM (inactive)	21.2 µM (inactive)	22 µM (inactive)	2.19 µM (inactive)	17.5 µM (inactive)	38.8 µM (inactive)	21.2 µM (inactive)	22.2 µM (inactive)	35.6 µM (inactive)	71.3 µM (inactive)	26.5 µM (inactive)	22.2 µM (inactive)
CC[S+]1C2=C(CC(C)(C)CC2=O)[N-]c2ccccc21 (centres undefined)	> 100 µM (inactive)	> 100 µM (inactive)	> 100 µM (inactive)	> 100 µM (inactive)	> 100 µM (inactive)	> 100 µM	> 100 µM (inactive)	> 100 µM (inactive)	> 100 µM (inactive)	> 100 µM (inactive)	> 100 µM (inactive)	> 100 µM (inactive)	> 100 µM (inactive)	> 100 µM (inactive)	> 100 µM (inactive)	> 100 µM (inactive)	> 100 µM (inactive)	> 100 µM (inactive)	> 100 µM (inactive)	> 100 µM (inactive)
CCCCCCCCCCCCCCCC(=O)OCC1OC(OC)C2NP(=O)(N(CCCl)CCCl)OC1C2O (centres undefined)	0.44 µM (active)	10.6 µM (inactive)	0.953 µM (active)	0.142 µM (active)	2.54 µM (inactive)	3.14 µM	0.822 µM (active)	2.36 µM (inactive)	1.28 µM (inactive)	4.31 µM (inactive)	0.54 µM (active)	0.916 µM (active)	20.8 µM (inactive)	2.51 µM (inactive)	1.68 µM (inactive)	22.2 µM (inactive)	8.3 µM (inactive)	2.91 µM (inactive)	1.32 µM (inactive)	1.23 µM (inactive)
NS(=O)(=O)c1cc(C(=O)O)c(Cl)c([N+](=O)[O-])c1Cl	> 100 µM (inactive)	> 100 µM (inactive)	> 100 µM (inactive)	> 100 µM (inactive)	> 100 µM (inactive)	> 100 µM	> 100 µM (inactive)	> 100 µM (inactive)	> 100 µM (inactive)	> 100 µM (inactive)	> 100 µM (inactive)	> 100 µM (inactive)	> 100 µM (inactive)	> 100 µM (inactive)	> 100 µM (inactive)	> 100 µM (inactive)	> 100 µM (inactive)	> 100 µM (inactive)	> 100 µM (inactive)	> 100 µM (inactive)
O=c1c2c(F)c(F)c(F)c(F)c2sc2nccn12	15.2 µM (inactive)	19.2 µM (inactive)	16.4 µM (inactive)	11.3 µM (inactive)	17.5 µM (inactive)	12.4 µM	19.9 µM (inactive)	6.55 µM (inactive)	12.3 µM (inactive)	17.6 µM (inactive)	11.2 µM (inactive)	18.9 µM (inactive)	20.4 µM (inactive)	19.2 µM (inactive)	17.7 µM (inactive)	23.4 µM (inactive)	19.1 µM (inactive)	22.5 µM (inactive)	14.9 µM (inactive)	14.7 µM (inactive)
CC(=O)OC1COC(n2c(=S)n(-c3ccccc3)c(=O)c3cc(Br)ccc32)C(OC(C)=O)C1OC(C)=O (centres undefined)	34.1 µM (inactive)	49.4 µM (inactive)	> 100 µM (inactive)	> 100 µM (inactive)	> 100 µM (inactive)	> 100 µM	19.5 µM (inactive)	> 100 µM (inactive)	57.1 µM (inactive)	30.8 µM (inactive)	65.2 µM (inactive)	45.8 µM (inactive)	> 100 µM (inactive)	36.1 µM (inactive)	22.2 µM (inactive)	37.8 µM (inactive)	45.1 µM (inactive)	7.11 µM (inactive)	14.6 µM (inactive)	37.3 µM (inactive)
CC1=NN(c2nc(N)nc(CSCc3nc(N)nc(N(C)C)n3)n2)C(C)(C)C1	> 100 µM (inactive)	> 100 µM (inactive)	> 100 µM (inactive)	> 100 µM (inactive)	> 100 µM (inactive)	> 100 µM	> 100 µM (inactive)	18.2 µM (inactive)	> 100 µM (inactive)	> 100 µM (inactive)	> 100 µM (inactive)	> 100 µM (inactive)	> 100 µM (inactive)	> 100 µM (inactive)	> 100 µM (inactive)	> 100 µM (inactive)	> 100 µM (inactive)	60.5 µM (inactive)	> 100 µM (inactive)	> 100 µM (inactive)
COc1ccc(OC)c2sc(N3C(=O)/C(=C/c4cccc([N+](=O)[O-])c4)N=C3c3ccccc3)nc12	49.7 µM (inactive)	57.8 µM (inactive)	99.8 µM (inactive)	24.9 µM (inactive)	45.5 µM (inactive)	61.5 µM	94.2 µM (inactive)	23.3 µM (inactive)	23.1 µM (inactive)	> 100 µM (inactive)	77.1 µM (inactive)	42.6 µM (inactive)	> 100 µM (inactive)	28.5 µM (inactive)	55.1 µM (inactive)	76 µM (inactive)	69 µM (inactive)	42.7 µM (inactive)	32 µM (inactive)	36.4 µM (inactive)
C/C(CC(=O)Nc1ccc(C)c(C)c1)=N\N(c1ccccc1)c1ccccc1	99.1 µM (inactive)	> 100 µM (inactive)	58.9 µM (inactive)	26.4 µM (inactive)	> 100 µM (inactive)	49 µM	> 100 µM (inactive)	26.2 µM (inactive)	36.1 µM (inactive)	> 100 µM (inactive)	> 100 µM (inactive)	15.2 µM (inactive)	> 100 µM (inactive)	> 100 µM (inactive)	63.2 µM (inactive)	68.1 µM (inactive)	55.6 µM (inactive)	65.9 µM (inactive)	15.2 µM (inactive)	21.6 µM (inactive)
NCCCC[C@H](N)C(=O)Nc1ccc(-c2nc3ccccc3s2)cc1Cl	3.05 µM (inactive)	0.149 µM (active)	13.4 µM (inactive)	3.28 µM (inactive)	0.681 µM (active)	5.68 µM	18.8 µM (inactive)	2.74 µM (inactive)	1.36 µM (inactive)	3.55 µM (inactive)	0.271 µM (active)	4.84 µM (inactive)	0.34 µM (active)	7.71 µM (inactive)	12.4 µM (inactive)	7.89 µM (inactive)	16.8 µM (inactive)	9.77 µM (inactive)	2.65 µM (inactive)	14.6 µM (inactive)
COc1ccccc1C(=O)Nc1ccc(Cl)c(C(=O)OC(C)C)c1	38 µM (inactive)	> 50.9 µM (inactive)	16 µM (inactive)	36.4 µM (inactive)	> 63.7 µM (inactive)	32.1 µM	42.3 µM (inactive)	28.4 µM (inactive)	43 µM (inactive)	> 54.6 µM (inactive)	37.4 µM (inactive)	33.2 µM (inactive)	> 50 µM (inactive)	> 63 µM (inactive)	25 µM (inactive)	36.2 µM (inactive)	31.8 µM (inactive)	35.4 µM (inactive)	43 µM (inactive)	25.9 µM (inactive)
Cn1c(O)c(C2=Nc3ccccc3C2=O)c2ccccc21	> 100 µM (inactive)	> 100 µM (inactive)	> 100 µM (inactive)	> 100 µM (inactive)	> 100 µM (inactive)	> 100 µM	> 100 µM (inactive)	> 100 µM (inactive)	> 100 µM (inactive)	> 100 µM (inactive)	> 100 µM (inactive)	> 100 µM (inactive)	> 100 µM (inactive)	> 100 µM (inactive)	> 100 µM (inactive)	> 100 µM (inactive)	> 100 µM (inactive)	> 100 µM (inactive)	> 100 µM (inactive)	> 100 µM (inactive)
CCOC(=O)NN1C(=O)C(=P(c2ccccc2)(c2ccccc2)c2ccccc2)C(C(=O)OC)=C1C	> 100 µM (inactive)	> 100 µM (inactive)	> 100 µM (inactive)	> 100 µM (inactive)	> 100 µM (inactive)	> 100 µM	> 100 µM (inactive)	> 100 µM (inactive)	> 100 µM (inactive)	> 100 µM (inactive)	> 100 µM (inactive)	> 100 µM (inactive)	> 100 µM (inactive)	> 100 µM (inactive)	> 100 µM (inactive)	–	> 100 µM (inactive)	> 100 µM (inactive)	> 100 µM (inactive)	> 100 µM (inactive)
